According to patent publication US10954193B2 (Vanderbilt University, priority 2013, dated 2021):

Biological target: recombinant Mcl-1 (residues 172-327) (Homo sapiens (Human), UniProt Q07820)
Assay: Bak peptide binding assay, fluorescence polarization anisotropy competition (FITC-Bak), Mcl-1;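 note: displacement of labeled Bak peptide read by fluorescence anisotropy, 10-point threefold dilutions from 20 µM top dose in 5% DMSO, 90 min incubation at room temperature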
Conditions: Table 3, binned ranges; FITC-Bak peptide 10 nM, Mcl-1 14 nM; read-out: Ki for inhibition of Mcl-1
Method: Bak Peptide Binding Assay
Compound affinity was measured using a fluorescence polarization anisotropy competition assay. Anisotropy measurements were carried out in 384-well, black, flat-bottom plates (Greiner Bio-one, Monroe, N.C., USA). […] 10 nM FITC-Bak peptide and 14 nM recombinant Mcl-1 (residues 172-327) were added to assay buffer (3 mM dithiothreitol, 50 mM NaCl, 20 mM Tris, pH 7.5).
Compounds are diluted in DMSO in a 10-point, 3-fold serial dilution scheme. 2.5 uL compound is added to 47.5 uL of assay buffer containing FITC-Bak and protein, for a final DMSO concentration of 5% and a top concentration of 20 uM. […] The plate was mixed and incubated for 90 minutes at room temperature. Anisotropy is measured at excitation wavelength 480 nm and emission wavelength 535 nm using an EnVision Multi-label plate reader (PerkinElmer, Wellesley, Mass., USA).

Sequence of recombinant Mcl-1 (residues 172-327) (Q07820 172-327): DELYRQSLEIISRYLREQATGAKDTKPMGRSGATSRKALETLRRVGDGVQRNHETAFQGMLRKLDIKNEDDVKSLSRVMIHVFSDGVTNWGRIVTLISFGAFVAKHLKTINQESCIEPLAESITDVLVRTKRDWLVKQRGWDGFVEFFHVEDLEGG

| Compound | Ki |
| --- | --- |
| Cc1cc(OCCCc2c(C)n(CC(=O)O)c3c(-c4ccnn4C)cccc23)cc(C)c1Cl [Example 64, 2-(3-(3-(4-chloro-3,5-dimethylphenoxy)propyl)-2-methyl-7-(1-methyl-1H-pyrazol-5-yl)-1H-indol-1-yl)acetic acid] | 0.101 to 0.299 µM |
| Cc1cc(OCCCc2c(C)n(CC(=O)O)c3c(-c4c(C)noc4C)cccc23)cc(C)c1Cl [Example 66, 2-(3-(3-(4-chloro-3,5-dimethylphenoxy)propyl)-7-(3,5-dimethylisoxazol-4-yl)-2-methyl-1H-indol-1-yl)acetic acid] | 0.101 to 0.299 µM |
| Cc1cnccc1-c1cccc2c(CCCOc3cc(C)c(Cl)c(C)c3)c(C)n(CC(=O)O)c12 [Example 67] | 0.101 to 0.299 µM |
| Cc1cc(OCCCc2c(C)n(CC(=O)O)c3c(-c4cccn4C)cccc23)cc(C)c1Cl [Example 68, 2-(3-(3-(4-chloro-3,5-dimethylphenoxy)propyl)-2-methyl-7-(1-methyl-1H-pyrrol-2-yl)-1H-indol-1-yl)acetic acid] | 0.101 to 0.299 µM |
| Cc1cnccc1-c1cccc2c(CCCOc3cc(C)c(Cl)c(C)c3)c(C)n(CCC(=O)O)c12 [Example 72, 3-(3-(3-(4-chloro-3,5-dimethylphenoxy)propyl)-2-methyl-7-(3-methylpyridin-4-yl)-1H-indol-1-yl)propanoic acid] | ≤ 0.1 µM |
| Cc1cc(OCCCc2c(C)n(CCC(=O)O)c3c(-c4cccn4C)cccc23)cc(C)c1Cl [Example 73, 3-(3-(3-(4-chloro-3,5-dimethylphenoxy)propyl)-2-methyl-7-(1-methyl-1H-pyrrol-2-yl)-1H-indol-1-yl)propanoic acid] | ≤ 0.1 µM |
| Cc1cc(OCCCc2c(C)n(CCC(=O)O)c3c(-c4cccnc4C)cccc23)cc(C)c1Cl [Example 75, 3-(3-(3-(4-chloro-3,5-dimethylphenoxy)propyl)-2-methyl-7-(2-methylpyridin-3-yl)-1H-indol-1-yl)propanoic acid] | ≤ 0.1 µM |
| CCn1nc(C)c(-c2cccc3c(CCCOc4cc(C)c(Cl)c(C)c4)c(C)n(CCC(=O)O)c23)c1C [Example 77, 3-(3-(3-(4-chloro-3,5-dimethylphenoxy)propyl)-7-(1-ethyl-3,5-dimethyl-1H-pyrazol-4-yl)-2-methyl-1H-indol-1-yl)propanoic acid] | ≤ 0.1 µM |
| Cc1cc(OCCCc2c(C)n(CCC(=O)O)c3c(-c4c(C)nn(CCN5CCOCC5)c4C)cccc23)cc(C)c1Cl [Example 79, 3-(3-(3-(4-chloro-3,5-dimethylphenoxy)propyl)-7-(3,5-dimethyl-1-(2-morpholinoethyl)-1H-pyrazol-4-yl)-2-methyl-1H-indol-1-yl)propanoic acid] | ≤ 0.1 µM |
| Cc1cc(OCCCc2c(C)n(CCC(=O)O)c3c(-c4c(C)nn(CCN5CCCC5)c4C)cccc23)cc(C)c1Cl [Example 80, 3-(3-(3-(4-chloro-3,5-dimethylphenoxy)propyl)-7-(3,5-dimethyl-1-(2-(pyrrolidin-1-yl)ethyl)-1H-pyrazol-4-yl)-2-methyl-1H-indol-1-yl)propanoic acid] | ≤ 0.1 µM |
| Cc1cc(OCCCc2c(C)n(CCC(=O)NS(C)(=O)=O)c3c(-c4ccnn4C)cccc23)cc(C)c1Cl [Example 81, 3-(3-(3-(4-chloro-3,5-dimethylphenoxy)propyl)-2-methyl-7-(1-methyl-1H-pyrazol-5-yl)-1H-indol-1-yl)-N-(methylsulfonyl)propanamide] | ≤ 0.1 µM |
| Cc1ccncc1-c1cccc2c(CCCOc3cc(C)c(Cl)c(C)c3)c(C)n(CCC(=O)NS(C)(=O)=O)c12 [Example 82, 3-(3-(3-(4-chloro-3,5-dimethylphenoxy)propyl)-2-methyl-7-(4-methylpyridin-3-yl)-1H-indol-1-yl)-N-(methylsulfonyl)propanamide] | ≤ 0.1 µM |
| Cc1cc(OCCCc2c(C)n(CCC(=O)NS(C)(=O)=O)c3c(-c4cccn4C)cccc23)cc(C)c1Cl [Example 84, 3-(3-(3-(4-chloro-3,5-dimethylphenoxy)propyl)-2-methyl-7-(1-methyl-1H-pyrrol-2-yl)-1H-indol-1-yl)-N-(methylsulfonyl)propanamide] | ≤ 0.1 µM |
| Cc1cc(OCCCc2c(C)n(CCC(=O)NS(C)(=O)=O)c3c(-c4c(C)nn(C)c4C)cccc23)cc(C)c1Cl [Example 85, 3-(3-(3-(4-chloro-3,5-dimethylphenoxy)propyl)-2-methyl-7-(1,3,5-trimethyl-1H-pyrazol-4-yl)-1H-indol-1-yl)-N-(methylsulfonyl)propanamide] | ≤ 0.1 µM |
| CCn1nc(C)c(-c2cccc3c(CCCOc4cc(C)c(Cl)c(C)c4)c(C)n(CCC(=O)NS(C)(=O)=O)c23)c1C [Example 86, 3-(3-(3-(4-chloro-3,5-dimethylphenoxy)propyl)-7-(1-ethyl-3,5-dimethyl-1H-pyrazol-4-yl)-2-methyl-1H-indol-1-yl)-N-(methylsulfonyl)propanamide] | ≤ 0.1 µM |
| CCn1nc(C)c(-c2cccc3c(CCCOc4cc(C)c(Cl)c(C)c4)c(C)n(CCC(=O)NS(=O)(=O)c4ccccc4)c23)c1C [Example 87, 3-(3-(3-(4-chloro-3,5-dimethylphenoxy)propyl)-7-(1-ethyl-3,5-dimethyl-1H-pyrazol-4-yl)-2-methyl-1H-indol-1-yl)-N-(phenylsulfonyl)propanamide] | ≤ 0.1 µM |
| Cc1cc(OCCCc2c(C)n(CCC(=O)NS(=O)(=O)Cc3ccccc3)c3c(-c4c(C)nn(C)c4C)cccc23)cc(C)c1Cl [Example 88, N-(benzylsulfonyl)-3-(3-(3-(4-chloro-3,5-dimethylphenoxy)propyl)-2-methyl-7-(1,3,5-trimethyl-1H-pyrazol-4-yl)-1H-indol-1-yl)propanamide] | ≤ 0.1 µM |
| Cc1cc(OCCCc2c(C)n(CCC(=O)NS(=O)(=O)c3ccc4ccccc4c3)c3c(-c4c(C)nn(C)c4C)cccc23)cc(C)c1Cl [Example 89, 3-(3-(3-(4-chloro-3,5-dimethylphenoxy)propyl)-2-methyl-7-(1,3,5-trimethyl-1H-pyrazol-4-yl)-1H-indol-1-yl)-N-(naphthalen-2-ylsulfonyl)propanamide] | ≤ 0.1 µM |
| Cc1cc(OCCCc2c(C)n(CCC(=O)NS(=O)(=O)c3ccc(Oc4ccccc4)cc3)c3c(-c4c(C)nn(C)c4C)cccc23)cc(C)c1Cl [Example 90, 3-(3-(3-(4-chloro-3,5-dimethylphenoxy)propyl)-2-methyl-7-(1,3,5-trimethyl-1H-pyrazol-4-yl)-1H-indol-1-yl)-N-((4-phenoxyphenyl)sulfonyl)propanamide] | ≤ 0.1 µM |
| Cc1cc(OCCCc2c(C)n(CCC(=O)NS(=O)(=O)c3ccccc3[N+](=O)[O-])c3c(-c4c(C)nn(C)c4C)cccc23)cc(C)c1Cl [Example 91, 3-(3-(3-(4-chloro-3,5-dimethylphenoxy)propyl)-2-methyl-7-(1,3,5-trimethyl-1H-pyrazol-4-yl)-1H-indol-1-yl)-N-((2-nitrophenyl)sulfonyl)propanamide] | ≤ 0.1 µM |
| Cc1cc(OCCCc2c(C)n(CCC(=O)NS(=O)(=O)c3cccc([N+](=O)[O-])c3)c3c(-c4c(C)nn(C)c4C)cccc23)cc(C)c1Cl [Example 92, 3-(3-(3-(4-chloro-3,5-dimethylphenoxy)propyl)-2-methyl-7-(1,3,5-trimethyl-1H-pyrazol-4-yl)-1H-indol-1-yl)-N-((3-nitrophenyl)sulfonyl)propanamide] | ≤ 0.1 µM |
| Cc1cc(OCCCc2c(C)n(CCC(=O)NS(=O)(=O)c3ccc([N+](=O)[O-])cc3)c3c(-c4c(C)nn(C)c4C)cccc23)cc(C)c1Cl [Example 93, 3-(3-(3-(4-chloro-3,5-dimethylphenoxy)propyl)-2-methyl-7-(1,3,5-trimethyl-1H-pyrazol-4-yl)-1H-indol-1-yl)-N-((4-nitrophenyl)sulfonyl)propanamide] | ≤ 0.1 µM |
| Cc1cc(OCCCc2c(C)n(CCC(=O)NS(=O)(=O)c3ccccn3)c3c(-c4c(C)nn(C)c4C)cccc23)cc(C)c1Cl [Example 94, 3-(3-(3-(4-chloro-3,5-dimethylphenoxy)propyl)-2-methyl-7-(1,3,5-trimethyl-1H-pyrazol-4-yl)-1H-indol-1-yl)-N-(pyridin-2-ylsulfonyl)propanamide] | ≤ 0.1 µM |
| Cc1cc(OCCCc2c(C)n(CCC(=O)NS(=O)(=O)c3cccnc3)c3c(-c4c(C)nn(C)c4C)cccc23)cc(C)c1Cl [Example 95, 3-(3-(3-(4-chloro-3,5-dimethylphenoxy)propyl)-2-methyl-7-(1,3,5-trimethyl-1H-pyrazol-4-yl)-1H-indol-1-yl)-N-(pyridin-3-ylsulfonyl)propanamide] | ≤ 0.1 µM |
| Cc1cc(OCCCc2c(C)n(CCC(=O)NS(=O)(=O)c3ccncc3)c3c(-c4c(C)nn(C)c4C)cccc23)cc(C)c1Cl [Example 96, 3-(3-(3-(4-chloro-3,5-dimethylphenoxy)propyl)-2-methyl-7-(1,3,5-trimethyl-1H-pyrazol-4-yl)-1H-indol-1-yl)-N-(pyridin-4-ylsulfonyl)propanamide] | ≤ 0.1 µM |
| Cc1cc(OCCCc2c(C)n(Cc3ccccc3C(=O)O)c3c(-c4c(C)n[nH]c4C)cccc23)cc(C)c1Cl [Example 97, 2-((3-(3-(4-chloro-3,5-dimethylphenoxy)propyl)-7-(3,5-dimethyl-1H-pyrazol-4-yl)-2-methyl-1H-indol-1-yl)methyl)benzoic acid] | 1 to 9.99 µM |
| Cc1cc(OCCCc2c(C)n(Cc3ccc(C(=O)O)cc3)c3c(-c4c(C)n[nH]c4C)cccc23)cc(C)c1Cl [Example 98, 4-((3-(3-(4-chloro-3,5-dimethylphenoxy)propyl)-7-(3,5-dimethyl-1H-pyrazol-4-yl)-2-methyl-1H-indol-1-yl)methyl)benzoic acid] | ≤ 0.1 µM |
| Cc1cc(OCCCc2c(C)n(Cc3cccc(C(=O)O)c3)c3c(-c4c(C)nn(C)c4C)c(Cl)ccc23)cc(C)c1Cl [Example 102, 3-((6-chloro-3-(3-(4-chloro-3,5-dimethylphenoxy)propyl)-2-methyl-7-(1,3,5-trimethyl-1H-pyrazol-4-yl)-1H-indol-1-yl)methyl)benzoic acid] | ≤ 0.1 µM |
| Cc1cc(OCCCc2c(C)n(Cc3ccc(CC(=O)O)cc3)c3c(-c4c(C)nn(C)c4C)c(Cl)ccc23)cc(C)c1Cl [Example 103, 2-(4-((6-chloro-3-(3-(4-chloro-3,5-dimethylphenoxy)propyl)-2-methyl-7-(1,3,5-trimethyl-1H-pyrazol-4-yl)-1H-indol-1-yl)methyl)phenyl)acetic acid] | ≤ 0.1 µM |
